Data published in US20100144712A1 (priority 2007, published 2010).
Values after ≈ are worked out from the molar mass of the structure shown.

Legend:
Type in all cases: cell-based
[1] = tested on: Candida albican ATCC MYA-573; assay: In vitro antifungal activity (MIC80), Candida albican ATCC MYA-573; settings: Candida; Table 2, MYA 573; read-out: Minimal inhibitory concentration (MIC80)
Outline: (§1)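 Broth microdilution in RPMI 1640 with 2% (v/v) final DMSO, test solutions 0.25 to 256 […]. Inoculum of 1.0×10^3–5.0×10^3 CFU/ml came from colonies grown 2–3 days at 35 °C, and alamarBlue was added. MIC80 is the lowest concentration reducing growth by 80% versus untreated control.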

[2] = tested on: Candida albican ATCC MYA-576; assay: In vitro antifungal activity (MIC80), Candida albican ATCC MYA-576; settings: Candida; Table 2, MYA 576; read-out: Minimal inhibitory concentration (MIC80)
Outline: as §1

[3] = tested on: Candida albican ATCC 64550; assay: In vitro antifungal activity (MIC80), Candida albican ATCC 64550; settings: Candida, ATCC64550; Table 2, 64550; read-out: Minimal inhibitory concentration (MIC80)
Outline: as §1

[4] = tested on: Candida albican ATCC 64124; assay: In vitro antifungal activity (MIC80), Candida albican ATCC 64124; settings: Candida, ATCC64124; Table 2, 64124; read-out: Minimal inhibitory concentration (MIC80)
Outline: as §1

[5] = tested on: Candida albican ATCC 62342; assay: In vitro antifungal activity (MIC80), Candida albican ATCC 62342; settings: Candida, ATCC62342; Table 2, 62342; read-out: Minimal inhibitory concentration (MIC80)
Outline: as §1

[6] = tested on: Candida albican ATCC 90873; assay: In vitro antifungal activity (MIC80), Candida albican ATCC 90873; settings: Candida, ATCC90873; Table 2, ATCC 90873; read-out: Minimal inhibitory concentration (MIC80)
Outline: as §1

[7] = tested on: Candida albican ATCC MYA-1003; assay: In vitro antifungal activity (MIC80), Candida albican ATCC MYA-1003; settings: Candida; Table 2, MYA 1003; read-out: Minimal inhibitory concentration (MIC80)
Outline: as §1

[8] = tested on: Aspergillus fumigatus (ATCC 16424); assay: In vitro antifungal activity (MIC80), Aspergillus fumigatus ATCC 16424; settings: Aspergillus fumigatus, ATCC16424, Table 2, ATCC 16424; read-out: Minimal inhibitory concentration (MIC80)
Procedure: (§2) In vitro antifungal activities of the inventive antifungal compounds were evaluated using test strains including Candida albican (ATCC 90873, 204276, 62342, 64124, 64550, 96901, MYA-573, MYA-574, MYA-575, MYA-576, MYA-1003) and Aspergillus fumigatus (ATCC 16424). Test samples and positive control samples were prepared by dissolving the inventive compounds and comparative compounds, i.e., amphotericin B, fluconazole and itraconazole, in DMSO, respectively, and each successively diluted with medium to obtain test and positive control solutions having test compound concentrations of 0.125 μg/ml to a maximum concentration not generating turbidity. Minimal inhibitory concentration (MIC80) of each compound was determined as the lowest concentration of the test compounds required to reduce growth by 80% relative to a control strain not treated.
(§3) 1) Test strain: Candida albican ATCC 90873, 204276, 62342, 64124, 64550, 96901, MYA-573, MYA-574, MYA-575, MYA-576, MYA-1003, and Aspergillus fumigatus ATCC 16424 were commercially obtained from The American Type Culture Collection (ATCC) and subcultured in CHEMON Co. Ltd. (amphotericin B was commercially purchased from Sigma, and fluconazole and itraconazole were prepared according to methods described in British Patent No. 2,099,818; and U.S. Pat. No. 4,267,179, respectively).
(§4) 2) Medium and culture condition: Candida albican was cultured in Sabourad Dextrose Agar, YM Agar or Potato Dextrose Agar according to ATCC information at a temperature of 37° C., 35° C., 30° C. or 25° C. Aspergillus fumigatus was cultured in Malt Extract Agar or Potato Dextrose Agar at a temperature ranging from 24 to 27° C.
(§5) 3) Preparation of test samples: the inventive compounds and comparative compounds were each diluted with DMSO to obtain 1 to 2 ml of a test sample in a concentration of 100-folds of the determining maximum concentration (256 μg/ml).
(§6) The test samples were each successively diluted with RPMI 1640 to obtain test solutions having concentrations of […] in a 12×75 mm sterilized disposable culture tube. The final concentration of DMSO was adjusted to […] (v/v).
(§7) 5) Preparation of strain solution and inoculation
(§8) Candida albican strains were each subcultured in Sabourad Dextrose Agar, YM Agar or Potato Dextrose Agar medium at 35° C. for 2˜3 days. In the case of yeasts, a single colony was taken from prominent colonies and suspended in 0.85% sterile physiological saline solution and the turbidity of the suspension was adjusted to 80˜82% at 530 nm, and then diluted 50-fold with RPMI 1640 medium to 1.0×10^3˜5.0×10^3 CFU/ml. The turbidity of fungi was adjusted to 80˜82% and the suspension was diluted 50-fold to […]. Aspergillus fumigatus strains were subcultured in Malt Extract Agar for 7˜10 days, and a single colony was taken from prominent colonies and suspended in 0.85% sterile physiological saline solution and the suspension was adjusted to 0.108 at 530 nm, and then diluted 1000-fold with RPMI 1640 medium to 0.4×10^2˜5×10^4 CFU/ml. The turbidity of fungi was adjusted to 80˜82% and the suspension was diluted 50-fold to 0.4102˜0.5104 CFU/ml.
(§9) The strain solutions thus obtained were each seeded into a sterilized 96-well microplate, 0.1 ml of each test solution were added thereto, and […] of alamarblue was treated to each well (Biosource, #DAL1100). This procedure was repeated 2 times.
(§10) Minimal inhibitory concentration (MIC80) of each compound was determined as the lowest concentration of the test compounds required to reduce growth by 80% relative to a control strain not treated.
MIC80 of each of the compounds of which antifungal activities can be confirmed by Table 2 was determined using other test strains, i.e., Aspergillus fumigatus ATCC 16424 and MYA-1163, Aspergillus terreus ATCC 28301, Aspergillus flavus ATCC MYA-1004, and Aspergillus niger ATCC 9142.

[9] = tested on: Candida albican ATCC MYA-574; assay: In vitro antifungal activity (MIC80), Candida albican ATCC MYA-574; settings: Candida; Table 2, MYA 574; read-out: Minimal inhibitory concentration (MIC80)
Outline: as §1

[10] = tested on: Candida albican ATCC 204276; assay: In vitro antifungal activity (MIC80), Candida albican ATCC 204276; settings: ATCC204276, Table 2, 204276, read-out: Minimal inhibitory concentration (MIC80)
Procedure: as §2, §3, §4, §5, §6, §7, §8, §9, §10

[11] = tested on: Candida albican ATCC 96901; assay: In vitro antifungal activity (MIC80), Candida albican ATCC 96901; settings: Candida, ATCC96901; Table 2, ATCC 96901; read-out: Minimal inhibitory concentration (MIC80)
Outline: as §1

[12] = tested on: Candida albican ATCC MYA-575; assay: In vitro antifungal activity (MIC80), Candida albican ATCC MYA-575; settings: Candida; Table 2, MYA 575; read-out: Minimal inhibitory concentration (MIC80)
Outline: as §1

Row | Compound | MIC80 [1] [µg/mL] | MIC80 [2] [µg/mL] | MIC80 [3] [µg/mL] | MIC80 [4] [µg/mL] | MIC80 [5] [µg/mL] | MIC80 [6] [µg/mL] | MIC80 [7] [µg/mL] | MIC80 [8] [µg/mL] | MIC80 [9] [µg/mL] | MIC80 [10] [µg/mL] | MIC80 [11] [µg/mL] | MIC80 [12] [µg/mL]
1 | C[C@@H](N1CCN(c2nc3ccccc3s2)CC1)[C@](O)(Cn1cncn1)c1ccc(F)cc1F [Example 2, (2R,3R)-3-(4-(benzothiazol-2-yl)piperazin-1-yl)-2-(2,4-difluorophenyl)-1-(1H-1,2,4-triazol-1-yl)butan-2-ol] | 0.25 (≈ 0.531 µM) | 0.125 (≈ 0.266 µM) | 1 (≈ 2.13 µM) | 4 (≈ 8.5 µM) | 0.5 (≈ 1.06 µM) | 0.125 (≈ 0.266 µM) | 128 (≈ 272 µM) | 0.5 (≈ 1.06 µM) | 8 (≈ 17 µM) | 0.125 (≈ 0.266 µM) | 2 (≈ 4.25 µM) | 8 (≈ 17 µM)
2 | C[C@@H](N1CCN(c2ncccn2)CC1)[C@](O)(Cn1cncn1)c1ccc(F)cc1F [Example 18, (2R,3R)-2-(2,4-difluorophenyl)-3-(4-(pyrimidin-2-yl)piperazin-1-yl)-1-(1H-1,2,4-triazol-1-yl)butan-2-ol] | 1 (≈ 2.41 µM) | 0.125 (≈ 0.301 µM) | 2 (≈ 4.81 µM) | 16 (≈ 38.5 µM) | 4 (≈ 9.63 µM) | 0.125 (≈ 0.301 µM) | > 128 | 0.125 (≈ 0.301 µM) | > 128 | 0.125 (≈ 0.301 µM) | 8 (≈ 19.3 µM) | > 128
3 | C[C@@H](N1CCN(Cc2ccco2)CC1)[C@](O)(Cn1cncn1)c1ccc(F)cc1F [Example 43, (2R,3R)-2-(2,4-difluorophenyl)-3-(4-((furan-2-yl)methyl)piperazin-1-yl)-1-(1H-1,2,4-triazol-1-yl)butan-2-ol] | 4 (≈ 9.58 µM) | 0.25 (≈ 0.599 µM) | 16 (≈ 38.3 µM) | 64 (≈ 153 µM) | 4 (≈ 9.58 µM) | 0.125 (≈ 0.299 µM) | > 128 | 64 (≈ 153 µM) | 128 (≈ 307 µM) | 0.125 (≈ 0.299 µM) | 64 (≈ 153 µM) | 128 (≈ 307 µM)
4 | Cc1ccc(C(=O)c2cnc3sc(C(=O)N4CCN([C@H](C)[C@](O)(Cn5cncn5)c5ccc(F)cc5F)CC4)cn23)cc1 [Example 56, (4-((2R,3R)-3-(2,4-difluorophenyl)-3-hydroxy-4-(1H-1,2,4-triazol-1-yl)butan-2-yl)piperazin-1-yl)(5-(4-methylbenzoyl)-imidazo[2,1-b]-thiazol-2-yl)methanone] | 1 (≈ 1.65 µM) | 0.125 (≈ 0.206 µM) | 2 (≈ 3.3 µM) | 8 (≈ 13.2 µM) | 0.5 (≈ 0.826 µM) | 0.25 (≈ 0.413 µM) | > 128 | 1 (≈ 1.65 µM) | 4 (≈ 6.6 µM) | 0.25 (≈ 0.413 µM) | 8 (≈ 13.2 µM) | 4 (≈ 6.6 µM)
5 | C[C@@H](N1CCN(c2nc3ccccc3n2C)CC1)[C@](O)(Cn1cncn1)c1ccc(F)cc1F [Example 3, (2R,3R)-2-(2,4-difluorophenyl)-3-(4-(1-methyl-1H-benzoimidazol-2-yl)piperazin-1-yl)-1-(1H-1,2,4-triazol-1-yl)butan-2-ol] | 4 (≈ 8.56 µM) | 0.125 (≈ 0.267 µM) | 2 (≈ 4.28 µM) | 16 (≈ 34.2 µM) | 8 (≈ 17.1 µM) | 0.125 (≈ 0.267 µM) | > 128 | 1 (≈ 2.14 µM) | 16 (≈ 34.2 µM) | 0.125 (≈ 0.267 µM) | 4 (≈ 8.56 µM) | 16 (≈ 34.2 µM)
6 | C[C@@H](N1CCN(c2ccccn2)CC1)[C@](O)(Cn1cncn1)c1ccc(F)cc1F [Example 16, (2R,3R)-2-(2,4-difluorophenyl)-3-(4-(pyridin-2-yl)piperazin-1-yl)-1-(1H-1,2,4-triazol-1-yl)butan-2-ol] | 0.5 (≈ 1.21 µM) | 0.125 (≈ 0.302 µM) | 1 (≈ 2.41 µM) | 8 (≈ 19.3 µM) | 1 (≈ 2.41 µM) | 0.125 (≈ 0.302 µM) | 64 (≈ 154 µM) | 16 (≈ 38.6 µM) | 32 (≈ 77.2 µM) | 0.125 (≈ 0.302 µM) | 16 (≈ 38.6 µM) | 32 (≈ 77.2 µM)
7 | C[C@@H](N1CCN(c2ccc(C#N)nc2)CC1)[C@](O)(Cn1cncn1)c1ccc(F)cc1F [Example 17, 5-(4-((2R,3R)-3-(2,4-difluorophenyl)-3-hydroxy-4-(1H-1,2,4-triazol-1-yl)butan-2-yl)piperazin-1-yl)picolinonitrile] | 0.25 (≈ 0.569 µM) | 0.125 (≈ 0.284 µM) | 1 (≈ 2.28 µM) | 16 (≈ 36.4 µM) | 2 (≈ 4.55 µM) | 0.125 (≈ 0.284 µM) | 32 (≈ 72.8 µM) | 8 (≈ 18.2 µM) | 64 (≈ 146 µM) | 0.125 (≈ 0.284 µM) | 8 (≈ 18.2 µM) | 64 (≈ 146 µM)
8 | C[C@@H](N1CCN(c2ccc3ccccc3n2)CC1)[C@](O)(Cn1cncn1)c1ccc(F)cc1F [Example 19, (2R,3R)-2-(2,4-difluorophenyl)-3-(4-(quinolin-2-yl)piperazin-1-yl)-1-(1H-1,2,4-triazol-1-yl)butan-2-ol] | 0.25 (≈ 0.538 µM) | 0.125 (≈ 0.269 µM) | 0.5 (≈ 1.08 µM) | 4 (≈ 8.61 µM) | 0.25 (≈ 0.538 µM) | 0.125 (≈ 0.269 µM) | > 128 | 0.125 (≈ 0.269 µM) | > 128 | 0.125 (≈ 0.269 µM) | 0.5 (≈ 1.08 µM) | > 128
9 | C[C@@H](N1CCN(C(=O)c2nc(-c3ccc(F)cc3)ns2)CC1)[C@](O)(Cn1cncn1)c1ccc(F)cc1F [Example 52, (3-(4-fluorophenyl)-1,2,4-thiadiazol-5-yl)(4-((2R,3R)-3-(2,4-difluorophenyl)-3-hydroxy-4-(1H-1,2,4-triazol-1-yl)butan-2-yl)piperazin-1-yl)methanone] | 4 (≈ 7.36 µM) | 0.125 (≈ 0.23 µM) | 4 (≈ 7.36 µM) | > 128 | 4 (≈ 7.36 µM) | 0.125 (≈ 0.23 µM) | > 128 | 1 (≈ 1.84 µM) | > 128 | 0.125 (≈ 0.23 µM) | 32 (≈ 58.9 µM) | > 128
